The test system of one series is Bacillus subtilis. As to the kind of experiment: Antimicrobial activity against Bacillus subtilis (agar plate-cylinder). Format: cell-based. The note with it: standard bleomycin A2 (copper-free) assumed 1,000 mcg potency/mg. The protocol: (§1) 2. ANT[…] MYC[…] ATCC 607 AND BACILLUS SUBTILIS
(§2) The antimicrobial activity was tested against the captioned test organisms by the method of agar plate-cylinder. The activity was recorded on the assumption that the activity of standard sample of bleomycin A2 (copper-free form) is 1,000 mcg poteney/mg.

Series [1] has as its system Mycobacterium smegmatis ATCC 607. The series is described as follows: Antimicrobial activity against Mycobacterium smegmatis ATCC 607 (agar plate-cylinder). It counts as cell-based. As to conditions: standard bleomycin A2 (copper-free) assumed 1,000 mcg potency/mg. As to the method:
as §1, §2

For series [2] the following is noted: CDF1/SLC male mice, s.c. once a day for 10 days, Behrens-Karber, daily dose.
Procedure: From the mortality during the administration period, LD50 (daily dose) was determined by the method of Behrens-Karber.
The subject of another series is pulmonary fibrosis. The series is described as follows: Pulmonary toxicity (pulmonary fibrosis) in mice. The note with it: for Incidence: Number of mice with pulmonary fibrosis (%) / Incidence: Number of mice with pulmonary fibrosis / Grade: Total score of pulmonary fibrosis/total number of samples / Grade: Total score of pulmonary fibrosis/total number of samples (%): ICR mice, 5 mg/kg i.p. once a day for 10 days; for Incidence: Number of mice with pulmonary fibrosis (%) / Incidence: Number of mice with pulmonary fibrosis: 5 weeks observation; for Incidence: Number of mice with pulmonary fibrosis: mice with fibrosis/total; for Grade: Total score of pulmonary fibrosis/total number of samples / Grade: Total score of pulmonary fibrosis/total number of samples (%): points 0, 1, 2, 4, 6; for Ratio (by comparison with "Bleomycin Complex"): versus Bleomycin Complex.

The subject of another series is HeLa S3 cells. The series is described as follows: Growth inhibitory activity against cultured HeLa S3 cells. It counts as cell-based. The note with it: 3 days. As to the method: 3. GROWTH INHIBITORY ACTIVITY AGAINST CULTURED HELA S3 CELLS
HeLa S3 cells were inoculated into a medium (MEM with 10% bovine serum) placed in a plastic petri dish. Two days thereafter, a bleomycin was added to the dish. After 3 days of breeding, the number of cells were counted. The percentage growth inhibition was calculated using the following equation:
Percentage inhibition (%)=100×(B-A)/(B-C) where A is the final number of cells after 3 days from the addition of test sample, B is the final number of cells in the control without addition of the test smaple, and C is the number of cells at the time of addition of the test sample.

The source of these data is patent US4472304A, “(Amido)N-substituted bleomycins, salts thereof and process for preparation thereof” (Nippon Kayaku Kabushiki Kaisha, priority 1981, dated 1984).

For the compound `Cc1c(N)nc(C(CC(N)=O)NCC(N)C(=O)NCCCNC(C)c2ccccc2)nc1C(=O)NC(C(=O)NC(C)C(O)C(C)C(=O)NC(C(=O)NCCc1nc(-c2nc(C(=O)NCCC[N+](C)(C)CCCN(Cc3ccccc3)Cc3ccccc3)cs2)cs1)C(C)O)C(OC1OC(CO)C(O)C(O)C1OC1OC(CO)C(O)C(OC(N)=O)C1O)c1cnc[nH]1` [Compound 52, 3-{N,N--dimethyl-N--[dibenzylamino)propyl]amino}-propylamino-(amido)N--[3-((S)-1'-phenyl)aminopropyl]-BLM], the “Antimicrobial potency of Cu-free compound against Bacillus subtilis” value with Bacillus subtilis turned out to be 2372 mcg potency/mg. The “Antimicrobial potency of Cu-free compound against Mycobacterium smegmatis ATCC 607” value in series [1] was 21371 mcg potency/mg. For the same compound, the “LD50 during administration period of 10 consecutive days” value in series [2] amounted to 13.9 mg/kg/day. In the series with pulmonary fibrosis, the “Incidence: Number of mice with pulmonary fibrosis (%)” value (shortened to “Incidence: Number of mice … (%)”) is reported as 0%, the “Incidence: Number of mice with pulmonary fibrosis” value was 0/9, the “Grade: Total score of pulmonary fibrosis/total number of samples” value is 0/27 and the “Grade: Total score of pulmonary fibrosis/total number of samples (%)” value turned out to be 0%. In addition, the “Ratio (by comparison with "Bleomycin Complex")” value in the series on pulmonary fibrosis amounted to 0.

Regarding `Cc1c(N)nc(C(CC(N)=O)NCC(N)C(=O)NCCCNC(C)c2ccccc2)nc1C(=O)NC(C(=O)NC(C)C(O)C(C)C(=O)NC(C(=O)NCCc1nc(-c2nc(C(=O)NCCCN(C)CCCNCc3ccc(Cl)cc3)cs2)cs1)C(C)O)C(OC1OC(CO)C(O)C(O)C1OC1OC(CO)C(O)C(OC(N)=O)C1O)c1cnc[nH]1` [Compound 39, 3-{N--methyl-N--[3-(p-chlorobenzyl)aminopropyl]amino}-propylamino-(amino)N--[3-(S)-1'-phenylethyl)aminopropyl]-BLM], in the series with Bacillus subtilis, the “Antimicrobial potency of Cu-free compound against Bacillus subtilis” value is 2590 mcg potency/mg. The “Antimicrobial potency of Cu-free compound against Mycobacterium smegmatis ATCC 607” value in series [1] is listed as 14880 mcg potency/mg. Also, in the series with pulmonary fibrosis, the “Incidence: Number of mice … (%)” value is listed as 20%, the “Incidence: Number of mice with pulmonary fibrosis” value is listed as 2/9, the “Grade: Total score of pulmonary fibrosis/total number of samples” value is given as 2/27 and the “Grade: Total score of pulmonary fibrosis/total number of samples (%)” value came to 7%. In addition, the “Ratio (by comparison with "Bleomycin Complex")” value in the series on pulmonary fibrosis is given as 0.07.

Take `Cc1c(N)nc(C(CC(N)=O)NCC(N)C(=O)NCCN2CCNCC2)nc1C(=O)NC(C(=O)NC(C)C(O)C(C)C(=O)NC(C(=O)NCCc1nc(-c2nc(C(=O)NCCCNC(C)c3ccccc3)cs2)cs1)C(C)O)C(OC1OC(CO)C(O)C(O)C1OC1OC(CO)C(O)C(OC(N)=O)C1O)c1cnc[nH]1` [Compound 33, 3-((S)-1'-phenylethylamino)propylamino-(amido)N--[2-(1-piperazinyl)ethyl]-BLM]: the “Antimicrobial potency of Cu-free compound against Bacillus subtilis” value in the series on Bacillus subtilis is recorded as 5009 mcg potency/mg. Moreover, the “Antimicrobial potency of Cu-free compound against Mycobacterium smegmatis ATCC 607” value in series [1] amounted to 6359 mcg potency/mg. In addition, in the series on pulmonary fibrosis, the “Incidence: Number of mice … (%)” value was 56%, the “Incidence: Number of mice with pulmonary fibrosis” value is 5/9, the “Grade: Total score of pulmonary fibrosis/total number of samples” value is on record as 11/27 and the “Grade: Total score of pulmonary fibrosis/total number of samples (%)” value was found to be 41%. The “Ratio (by comparison with "Bleomycin Complex")” value with pulmonary fibrosis was determined as 0.44.

With `Cc1c(N)nc(C(CC(N)=O)NCC(N)C(=O)NCCCNC(C)c2ccccc2)nc1C(=O)NC(C(=O)NC(C)C(O)C(C)C(=O)NC(C(=O)NCCc1nc(-c2nc(C(=O)NCCCN(C)CCCNCC3CCCCCCC3)cs2)cs1)C(C)O)C(OC1OC(CO)C(O)C(O)C1OC1OC(CO)C(O)C(OC(N)=O)C1O)c1cnc[nH]1` [Compound 60, 3-{N--methyl-N--[3-(cyclooctylmethyl)aminopropyl]amino}-propylamino-(amido)N--[3-((S)-1'-phenylethylamino)propyl]-BLM], in the series with Bacillus subtilis, the “Antimicrobial potency of Cu-free compound against Bacillus subtilis” value is listed as 7273 mcg potency/mg. Moreover, the “Antimicrobial potency of Cu-free compound against Mycobacterium smegmatis ATCC 607” value in series [1] is 54345 mcg potency/mg. Moreover, in the series on pulmonary fibrosis, the “Incidence: Number of mice … (%)” value came to 0%, the “Incidence: Number of mice with pulmonary fibrosis” value is reported as 0/9, the “Grade: Total score of pulmonary fibrosis/total number of samples” value was 0/27 and the “Grade: Total score of pulmonary fibrosis/total number of samples (%)” value was found to be 0%. Besides, the “Ratio (by comparison with "Bleomycin Complex")” value in the series with pulmonary fibrosis stood at 0.

Consider “3-((S)-1'-phenylethylamino)propylamino-(amido)N--[1,6-dimethyl-heptyl]-BLM [Compound 32]”, for which the “Antimicrobial potency of Cu-free compound against Bacillus subtilis” value with Bacillus subtilis stood at 298 mcg potency/mg. Also, the “Antimicrobial potency of Cu-free compound against Mycobacterium smegmatis ATCC 607” value in series [1] is on record as 39956 mcg potency/mg. Also, the “50% Growth inhibitory concentration of Cu-free compd. against cultured HeLaS3 cells (ID50)” value with HeLa S3 cells is 0.83 µg/mL.

Take `CCCCCCCCNC(=O)C(N)CNC(CC(N)=O)c1nc(N)c(C)c(C(=O)NC(C(=O)NC(C)C(O)C(C)C(=O)NC(C(=O)NCCc2nc(-c3nc(C(=O)NCCC[N+](CC)(CC)CCCN(Cc4ccccc4)Cc4ccccc4)cs3)cs2)C(C)O)C(OC2OC(CO)C(O)C(O)C2OC2OC(CO)C(O)C(OC(N)=O)C2O)c2cnc[nH]2)n1` (stereo not shown) [Compound 56, 3-{N,N--diethyl-N--[3-(dibenzylamino)propyl]amino}propylamino-(amido)N--[octyl]-BLM]: the “Antimicrobial potency of Cu-free compound against Bacillus subtilis” value in the series on Bacillus subtilis stood at 520 mcg potency/mg. Further, the “Antimicrobial potency of Cu-free compound against Mycobacterium smegmatis ATCC 607” value in series [1] is given as 41380 mcg potency/mg. For the same compound, in the series on pulmonary fibrosis, the “Incidence: Number of mice … (%)” value is 0%, the “Incidence: Number of mice with pulmonary fibrosis” value is 0/9, the “Grade: Total score of pulmonary fibrosis/total number of samples” value was 0/27 and the “Grade: Total score of pulmonary fibrosis/total number of samples (%)” value is listed as 0%. The “Ratio (by comparison with "Bleomycin Complex")” value with pulmonary fibrosis stood at 0.

In the case of `Cc1c(N)nc(C(CC(N)=O)NCC(N)C(=O)NCc2ccccc2)nc1C(=O)NC(C(=O)NC(C)C(O)C(C)C(=O)NC(C(=O)NCCc1nc(-c2nc(C(=O)NCCC[N+](C)(CCCN(Cc3ccccc3)Cc3ccccc3)Cc3ccccc3)cs2)cs1)C(C)O)C(OC1OC(CO)C(O)C(O)C1OC1OC(CO)C(O)C(OC(N)=O)C1O)c1cnc[nH]1` (stereo not shown) [Compound 51, 3-{N--methyl-N--benzyl-N--[3-(dibenzylamino)propyl]amino}-propylamino-(amido)N--[benzyl]-BLM], the “Antimicrobial potency of Cu-free compound against Bacillus subtilis” value in the series on Bacillus subtilis is reported as 410 mcg potency/mg. In addition, in series [1], the “Antimicrobial potency of Cu-free compound against Mycobacterium smegmatis ATCC 607” value was determined as 24461 mcg potency/mg. In the series on pulmonary fibrosis, the “Incidence: Number of mice … (%)” value turned out to be 0%, the “Incidence: Number of mice with pulmonary fibrosis” value is 0/8, the “Grade: Total score of pulmonary fibrosis/total number of samples” value was 0/24 and the “Grade: Total score of pulmonary fibrosis/total number of samples (%)” value came to 0%. For the same compound, the “Ratio (by comparison with "Bleomycin Complex")” value in the series on pulmonary fibrosis was 0.

With “4-Guanidinobutylamino-(amido)N--[1',6'-dimethylheptyl]-BLM [Compound 8]”, in the series on Bacillus subtilis, the “Antimicrobial potency of Cu-free compound against Bacillus subtilis” value came out at 950 mcg potency/mg. Besides, the “Antimicrobial potency of Cu-free compound against Mycobacterium smegmatis ATCC 607” value in series [1] was 24880 mcg potency/mg. In addition, in the series with HeLa S3 cells, the “50% Growth inhibitory concentration of Cu-free compd. against cultured HeLaS3 cells (ID50)” value worked out at 0.62 µg/mL.
